In patent US5840684A, “Glycopeptide antibiotic derivatives” (Eli Lilly and Company, priority 1995, dated 1998):

How the values were obtained:
[1] = tested on: vancomycin-susceptible enterococci; test: broth micro-dilution, mean geometric MIC; assay type: cell-based, Enterococcus faecium and Enterococcus faecalis; settings: enterococci, 24-hour incubation
[2] = tested on: Staphylococcus haemolyticus 415; test: broth micro-dilution MIC; assay type: cell-based
Method: (§1) The formula I compounds have in vitro and in vivo activity against Gram-positive pathogenic bacteria. The MIC's were determined using a standard broth micro-dilution assay.

[3] = tested on: Haemophilus influenzae RD; test: broth micro-dilution MIC; assay type: cell-based; settings: Haemophilus influenzae RD
Method: as §1

[4] = tested on: Streptococcus pneumoniae P1; test: broth micro-dilution MIC; assay type: cell-based
Method: as §1

[5] = tested on: Escherichia coli EC14; test: broth micro-dilution MIC; assay type: cell-based
Method: as §1

[6] = tested on: Entercoccus faecium 180; test: broth micro-dilution MIC; assay type: cell-based; settings: Entercoccus faecium 180
Method: as §1

[7] = tested on: Enterococcus gallinarum 245; test: broth micro-dilution MIC; assay type: cell-based; settings: Enterococcus gallinarum 245
Method: as §1

[8] = tested on: Staphylococcus haemolyticus 105; test: broth micro-dilution MIC; assay type: cell-based
Method: as §1

[9] = tested on: Entercoccus faecium 2041; test: broth micro-dilution MIC; assay type: cell-based; settings: Entercoccus faecium 2041
Method: as §1

[10] = tested on: Staphylococcus epidermidis 270; test: broth micro-dilution MIC; assay type: cell-based
Method: as §1

[11] = tested on: vancomycin-resistant enterococci; test: broth micro-dilution, mean geometric MIC; assay type: cell-based, Enterococcus faecium and Enterococcus faecalis; settings: enterococci, 24-hour incubation
[12] = tested on: Entercoccus faecium 180-1; test: broth micro-dilution MIC; assay type: cell-based
Method: (§2) The MIC's were determined using a standard broth micro-dilution assay.

[13] = tested on: Streptococcus pyogenes C203; test: broth micro-dilution MIC; assay type: cell-based
Method: as §2

[14] = tested on: Staphylococcus aureus X778; test: broth micro-dilution MIC; assay type: cell-based
Method: as §2

[15] = tested on: Staphylococcus aureus X400; test: broth micro-dilution MIC; assay type: cell-based
Method: as §2

[16] = tested on: Entercoccus faecium 276; test: broth micro-dilution MIC; assay type: cell-based
Method: as §2

[17] = tested on: Staphylococcus aureus 491; test: broth micro-dilution MIC; assay type: cell-based
Method: as §2

[18] = tested on: Staphylococcus aureus 446; test: broth micro-dilution MIC; assay type: cell-based
Method: as §2

[19] = tested on: Staphylococcus aureus SA1199; test: broth micro-dilution MIC; assay type: cell-based
Method: as §2

[20] = tested on: Staphylococcus aureus 447; test: broth micro-dilution MIC; assay type: cell-based
Method: as §2

[21] = tested on: Staphylococcus aureus SA1199A; test: broth micro-dilution MIC; assay type: cell-based
Method: as §2

[22] = tested on: Staphylococcus aureus 489; test: broth micro-dilution MIC; assay type: cell-based
Method: as §2

[23] = tested on: Staphylococcus aureus S13E; assay type: cell-based
Method: as §2

[24] = tested on: Staphylococcus aureus SA1199B; assay type: cell-based
Method: as §2

CC(C)CC(C(=O)NC1C(=O)NC(CC(N)=O)C(=O)NC2C(=O)NC3C(=O)NC(C(=O)NC(C(=O)O)c4cc(O)cc(O)c4-c4cc3ccc4O)C(OC3CC(C)(N)C(O)C(C)O3)c3ccc(c(Cl)c3)Oc3cc2cc(c3OC2OC(CO)C(O)C(O)C2OC2CC(C)(NCc3cccc(Oc4ccccc4)c3)C(O)C(C)O2)Oc2ccc(cc2Cl)C1O)N(C)Cc1cccc(Oc2ccccc2)c1 (stereo not drawn) [Compound 271]
> 64 mg/L: MIC [3] | MIC [5]
0.33 mg/L: mean geometric MIC, Vancomycin Sensitive Strains [1]
2 mg/L: MIC [2] | MIC [6] | MIC [7] | MIC [8] | MIC [9] | MIC [15] | MIC [19] | MIC [20]
5.7 mg/L: mean geometric MIC, Vancomycin Resistant Strains [11]
0.125 mg/L: MIC [12]
0.5 mg/L: MIC [14] | MIC [17] | MIC [21]
≤ 0.06 mg/L: MIC [4] | MIC [13]
1 mg/L: MIC [10] | MIC [16] | MIC [18] | MIC [22] | MIC [23] | MIC [24]

CC(C)CC(C(=O)NC1C(=O)NC(CC(N)=O)C(=O)NC2C(=O)NC3C(=O)NC(C(=O)NC(C(=O)O)c4cc(O)cc(O)c4-c4cc3ccc4O)C(OC3CC(C)(N)C(O)C(C)O3)c3ccc(c(Cl)c3)Oc3cc2cc(c3OC2OC(CO)C(O)C(O)C2OC2CC(C)(NCc3ccncc3)C(O)C(C)O2)Oc2ccc(cc2Cl)C1O)N(C)Cc1ccncc1 (stereo not drawn) [Compound 274]
2 mg/L: MIC [19] | MIC [22] | MIC [24]
0.125 mg/L: MIC [13]
8 mg/L: MIC [15] | MIC [18]
≤ 0.06 mg/L: MIC [4]
4 mg/L: MIC [14] | MIC [17] | MIC [23]
1 mg/L: MIC [9] | MIC [16] | MIC [21]
16 mg/L: MIC [10] | MIC [20]
> 64 mg/L: MIC [2] | MIC [3] | MIC [5] | MIC [6] | MIC [7] | MIC [8]
0.5 mg/L: MIC [12]
> 128 mg/L: mean geometric MIC, Vancomycin Resistant Strains [11]
9.2 mg/L: mean geometric MIC, Vancomycin Sensitive Strains [1]

CC(C)CC(C(=O)NC1C(=O)NC(CC(N)=O)C(=O)NC2C(=O)NC3C(=O)NC(C(=O)NC(C(=O)O)c4cc(O)cc(O)c4-c4cc3ccc4O)C(OC3CC(C)(N)C(O)C(C)O3)c3ccc(c(Cl)c3)Oc3cc2cc(c3OC2OC(CO)C(O)C(O)C2OC2CC(C)(NCc3ccc(Oc4ccccc4)cc3)C(O)C(C)O2)Oc2ccc(cc2Cl)C1O)N(C)Cc1ccc(Oc2ccccc2)cc1 (stereo not drawn) [Compound 247]
2 mg/L: MIC [2]
0.125 mg/L: MIC [7] | MIC [9]
1 mg/L: MIC [8] | MIC [10] | MIC [19] | MIC [20]
0.29 mg/L: mean geometric MIC, Vancomycin Sensitive Strains [1]
> 64 mg/L: MIC [3] | MIC [5]
≤ 0.06 mg/L: MIC [4] | MIC [12] | MIC [13] | MIC [21]
0.5 mg/L: MIC [6] | MIC [14] | MIC [15] | MIC [17] | MIC [18] | MIC [23] | MIC [24]
0.25 mg/L: MIC [16] | MIC [22]
2.4 mg/L: mean geometric MIC, Vancomycin Resistant Strains [11]

CNC(CC(C)C)C(=O)NC1C(=O)NC(CC(N)=O)C(=O)NC2C(=O)NC3C(=O)NC(C(=O)NC(C(=O)O)c4cc(O)cc(O)c4-c4cc3ccc4O)C(OC3CC(C)(NCc4ccc(C(F)(F)F)cc4)C(O)C(C)O3)c3ccc(c(Cl)c3)Oc3cc2cc(c3OC2OC(CO)C(O)C(O)C2OC2CC(C)(NCc3ccc(C(F)(F)F)cc3)C(O)C(C)O2)Oc2ccc(cc2Cl)C1O (stereo not drawn) [Compound 272]
0.125 mg/L: MIC [8] | MIC [9] | MIC [14] | MIC [15] | MIC [16] | MIC [22] | MIC [23]
> 64 mg/L: MIC [3] | MIC [5]
0.5 mg/L: MIC [2] | MIC [6] | MIC [7]
≤ 0.06 mg/L: MIC [4] | MIC [10] | MIC [12] | MIC [13] | MIC [21] | MIC [24]
0.25 mg/L: MIC [17] | MIC [18] | MIC [19] | MIC [20]
4.75 mg/L: mean geometric MIC, Vancomycin Resistant Strains [11]
0.072 mg/L: mean geometric MIC, Vancomycin Sensitive Strains [1]

CC(C)CC(C(=O)NC1C(=O)NC(CC(N)=O)C(=O)NC2C(=O)NC3C(=O)NC(C(=O)NC(C(=O)O)c4cc(O)cc(O)c4-c4cc3ccc4O)C(OC3CC(C)(NCc4ccc(-c5ccc(Cl)cc5)cc4)C(O)C(C)O3)c3ccc(c(Cl)c3)Oc3cc2cc(c3OC2OC(CO)C(O)C(O)C2OC2CC(C)(NCc3ccc(-c4ccc(Cl)cc4)cc3)C(O)C(C)O2)Oc2ccc(cc2Cl)C1O)N(C)Cc1ccc(-c2ccc(Cl)cc2)cc1.O=C(O)C(F)(F)F (stereo not drawn) [Compound 255]
64 mg/L: mean geometric MIC, Vancomycin Resistant Strains [11] | MIC [18]
16 mg/L: MIC [9] | MIC [12] | MIC [13] | MIC [21]
32 mg/L: mean geometric MIC, Vancomycin Sensitive Strains [1]
1 mg/L: MIC [4]
> 64 mg/L: MIC [2] | MIC [3] | MIC [5] | MIC [6] | MIC [7] | MIC [8] | MIC [10] | MIC [14] | MIC [15] | MIC [16] | MIC [17] | MIC [19] | MIC [20] | MIC [22] | MIC [23] | MIC [24]
